Measured values taken from patent publication US4061540A, “Cholesterol oxidaze and process for preparing same” (Kikkoman Shoyu Co., Ltd., priority 1975, dated 1977).

Key:
cholesterol oxidase [1] = assay: Inhibition of the enzyme; format: biochemical, Corynebacterium cholesterolicum
cholesterol oxidase [2] = assay: Action and substrate specificity: relative activity by hydrogen peroxide formation (peroxidase/4-aminoantipyrine/phenol, absorbance at 500 nm); format: biochemical, Corynebacterium cholesterolicum
Method: All the above-mentioned values of relative activity (%) refer to the relative amounts of hydrogen peroxide formed from the substances oxidized by cholesterol oxidase, where the activity to cholesterol is taken as 100. The activity was measured by the following procedure.
A substrate solution was prepared by mixing 50 microliter of a 0.38 micromolar solution of cholesterol in isopropanol with 3 milliliter of 0.1 M phosphate buffer (pH 7.0; it contains 0.82 millimoles of 4-aminoantipyrine, 14 millimoles of phenol, 0.17 millimoles of Carbowax 6000 and 0.3% Triton X-100). The resulting substrate solution was incubated for 5 minutes in a cell of light path, 10 mm, kept at 37° C.
50 microliter of an enzyme solution containing 2.5 U of peroxidase and 0.1 U of cholesterol oxidase was added. The increase in absorbance at 500 nm was measured at 37° C. The initial velocity was obtained from the increase in absorbance, from which the relative activity was computed. [Literature: Charles C. Allain, Lucy S. Poon, Cicely G. Chan, W. Richmond and Paul C. Fu, Clin. Chem. 20, 470 (1974)].

cholesterol oxidase [3] = assay: Km value by the ultraviolet absorption method; format: biochemical, Corynebacterium cholesterolicum
Method: (§1) Enzymatic activity was measured by ultraviolet absorption method [Clin. Chem. 20, 470 (1974)]. A substrate solution was prepared by dissolving 5 ml of a 300 mg/dl solution of cholesterol in isopropanol into 300 ml of phosphate buffer (pH 7.0) containing 0.05% of Triton X-100. 20 microliter of enzyme solution was added to 3.0 ml of the substrate solution, and the resulting mixture was reacted at 37° C for 15 minutes. Increase in the absorption at 240 nm, assignable to cholest-4-en-3-one resulting from the reaction, was measured.

[4] = Optimum pH and optimum temperature for the action of the enzyme; format: biochemical
Method: The optimum pH is in the vicinity of 7.0 when the substrate is cholesterol.
When the reaction time is 15 minutes, the optimum temperature is 40° C.
as §1

[5] = Relative activities of various enzymes exhibited to pregnenolone and cholesterol; format: biochemical; conditions: ratio of activity to pregnenolone over cholesterol; source of values for known enzymes not stated
Description: This enzyme oxidizes the hydroxyl group of steroids at […], and exerts no action upon other position of hydroxyl groups, such as 3α, 17β, etc., nor upon ester groups.

[6] = Isoelectric point by isoelectric focusing; format: physicochemical; conditions: pH, carrier ampholyte pH 3-10, 900 V, 50 hours, 4° C
Method: The enzyme has an isoelectric point of pH 8.7, as measured by the method of isoelectric focusing. Thus, 10 mg of a purified enzyme was introduced into a 110 ml column packed with a carried ampholyte kept at pH 3-10 [LKB-Producter, commercial name of a product manufactured by AB Co.; cf. Biochem. Biophys. Acta, 133, 435 (1967)]. An electric current was passed at a voltage of 900 V for a period of 50 hours, while the column was cooled to 4° C.

[7] = format: physicochemical; conditions: treated at 30° C for 1 hour
Method: It keeps stable in the pH range of 5-9 when treated at 30° C for 1 hour.

[8] = relative amounts of hydrogen peroxide formed, activity to cholesterol taken as 100, initial velocity, 37° C, pH 7.0

Molecule | Relative activity (%) (cholesterol oxidase [2]; [8]) | further results
Oc1cccc2cccnc12 [8-hydroxyquinoline] | – | Inhibition of the enzyme (in words) (cholesterol oxidase [1]): not inhibited
[Ag+] [Ag^+] | – | Inhibition of the enzyme (in words) (cholesterol oxidase [1]): inhibited
C[C@]12CC[C@@H](O)C[C@@H]1CC[C@@H]1[C@@H]2CC[C@]2(C)C(=O)CC[C@@H]12 [Androsterone] | – | Relative activity (%) (cholesterol oxidase [2]; pH 7): 0%
CC(=O)O[C@H]1CC[C@@]2(C)C(=CC[C@H]3[C@@H]4CC[C@H]([C@H](C)CCCC(C)C)[C@@]4(C)CC[C@@H]32)C1 [Cholesterol acetate] | 0 | –
CC(C)CCC[C@@H](C)[C@H]1CC[C@H]2[C@@H]3CC=C4C[C@@H](O)CC[C@]4(C)[C@H]3CC[C@]12C [Cholesterol] | 100 | Km (cholesterol oxidase [3]): 54 µM
C[C@H](CCC(=O)O)[C@H]1CC[C@H]2[C@@H]3[C@H](O)C[C@@H]4C[C@H](O)CC[C@]4(C)[C@H]3C[C@H](O)[C@]12C [Cholic acid] | 0 | –
C[C@]12CC[C@H](O)CC1=CC[C@@H]1[C@@H]2CC[C@]2(C)C(=O)CC[C@@H]12 [Dehydro-epiandrosterone] | 57 | –
C[C@]12CC[C@H](O)C[C@H]1CC[C@@H]1[C@@H]2CC[C@]2(C)[C@@H](C3=CC(=O)OC3)CC[C@]12O [Digitoxigenin] | 0 | –
C[C@@H]1CC[C@@]2(OC1)O[C@H]1C[C@H]3[C@@H]4CC=C5C[C@@H](O)CC[C@]5(C)[C@H]4CC[C@]3(C)[C@H]1[C@@H]2C [Diosgenin] | 0 | –
O=C(O)CN(CCN(CC(=O)O)CC(=O)O)CC(=O)O [EDTA] | – | Inhibition of the enzyme (in words) (cholesterol oxidase [1]): not inhibited
CC(C)[C@@H](C)/C=C/[C@@H](C)[C@H]1CC[C@H]2C3=CC=C4C[C@@H](O)CC[C@]4(C)[C@H]3CC[C@]12C [Ergosterol] | 13 | –
[Hg+2] [Hg^2+] | – | Inhibition of the enzyme (in words) (cholesterol oxidase [1]): inhibited
CC(=O)[C@H]1CC[C@H]2[C@@H]3CC=C4C[C@@H](O)CC[C@]4(C)[C@H]3CC[C@]12C [Pregnenolone] | 416 | Km (cholesterol oxidase [3]): 31 µM
CC[C@H](/C=C/[C@@H](C)[C@H]1CC[C@H]2[C@@H]3CC=C4C[C@@H](O)CC[C@]4(C)[C@H]3CC[C@]12C)C(C)C [Stigmasterol] | 17 | –
C[C@]12CC[C@H]3[C@@H](CCC4=CC(=O)CC[C@@]43C)[C@@H]1CC[C@@H]2O [Testosterone] | 0 | –
C=C1CC[C@H](O)C/C1=C/C=C1\CCC[C@]2(C)[C@@H]([C@H](C)CCCC(C)C)CC[C@@H]12 [Vitamin D3] | 0 | –
c1cnc2c(c1)ccc1cccnc12 [o-phenanthroline] | – | Inhibition of the enzyme (in words) (cholesterol oxidase [1]): not inhibited
O=C(O)c1cc[c]([Hg][Cl])cc1 [p-chloromercuribenzoate] | – | Inhibition of the enzyme (in words) (cholesterol oxidase [1]): inhibited
CC(C)CCC[C@@H](C)[C@H]1CC[C@H]2[C@@H]3CC[C@H]4C[C@@H](O)CC[C@]4(C)[C@H]3CC[C@]12C [β-Cholestanol] | 43 | –
C[C@]12CC[C@@H]3c4ccc(O)cc4CC[C@H]3[C@@H]1CC[C@@H]2O [β-Estradiol] | 0 | –
CC[C@H](CC[C@@H](C)[C@H]1CC[C@H]2[C@@H]3CC=C4C[C@@H](O)CC[C@]4(C)[C@H]3CC[C@]12C)C(C)C [β-Sitosterol] | 54 | –
cholesterol oxidase | – | optimum temperature for the action ([4]; reaction time 15 minutes): 40 °C; Optimum pH ([4]; substrate is cholesterol): ~7.0; relative activities exhibited to pregnenolone and cholesterol [5]: 4.16; isoelectric point [6]: 8.7; pH range in which it keeps stable [7]: 5-9
